In ChEMBL document CHEMBL5291721, “A preclinical secondary pharmacology resource illuminates target-adverse drug reaction associations of marketed drugs” (Nat Commun, 2023) one finds AC50 data, which are given here for 11 molecules.

Structures are written as SMILES.

In experiment [1] the target is T1, Alpha-2A adrenergic receptor (Homo sapiens, UniProt P08913).
T1 sequence (P08913 whole entry): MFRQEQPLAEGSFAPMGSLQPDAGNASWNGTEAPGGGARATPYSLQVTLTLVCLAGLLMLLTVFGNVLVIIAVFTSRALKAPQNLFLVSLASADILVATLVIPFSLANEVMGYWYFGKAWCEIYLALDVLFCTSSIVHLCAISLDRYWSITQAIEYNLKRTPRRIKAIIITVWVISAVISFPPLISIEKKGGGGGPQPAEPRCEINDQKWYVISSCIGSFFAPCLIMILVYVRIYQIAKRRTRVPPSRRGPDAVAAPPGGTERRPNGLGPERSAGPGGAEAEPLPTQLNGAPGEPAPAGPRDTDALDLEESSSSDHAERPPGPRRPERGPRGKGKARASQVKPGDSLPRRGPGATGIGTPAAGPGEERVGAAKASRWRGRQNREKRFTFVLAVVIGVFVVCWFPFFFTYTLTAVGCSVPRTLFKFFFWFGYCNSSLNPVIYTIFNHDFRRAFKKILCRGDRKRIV
It counts as functional, cell-based.

Experiment [2] concerns the target T2, Type-1 angiotensin II receptor (Homo sapiens, UniProt P30556).
T2 sequence (P30556 whole entry): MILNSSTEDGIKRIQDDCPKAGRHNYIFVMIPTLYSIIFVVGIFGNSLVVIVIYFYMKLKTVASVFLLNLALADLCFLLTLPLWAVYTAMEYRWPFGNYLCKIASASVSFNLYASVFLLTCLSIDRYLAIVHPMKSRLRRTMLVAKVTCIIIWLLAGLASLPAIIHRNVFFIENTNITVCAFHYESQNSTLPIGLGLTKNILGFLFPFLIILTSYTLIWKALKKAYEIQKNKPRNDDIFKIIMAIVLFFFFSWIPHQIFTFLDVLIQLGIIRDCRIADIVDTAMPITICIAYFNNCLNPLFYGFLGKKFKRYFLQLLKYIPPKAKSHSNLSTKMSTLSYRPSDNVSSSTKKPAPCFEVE

The target of another experiment is Melanocortin receptor 3 (Homo sapiens, UniProt P41968).
Melanocortin receptor 3, sequence (P41968 whole entry): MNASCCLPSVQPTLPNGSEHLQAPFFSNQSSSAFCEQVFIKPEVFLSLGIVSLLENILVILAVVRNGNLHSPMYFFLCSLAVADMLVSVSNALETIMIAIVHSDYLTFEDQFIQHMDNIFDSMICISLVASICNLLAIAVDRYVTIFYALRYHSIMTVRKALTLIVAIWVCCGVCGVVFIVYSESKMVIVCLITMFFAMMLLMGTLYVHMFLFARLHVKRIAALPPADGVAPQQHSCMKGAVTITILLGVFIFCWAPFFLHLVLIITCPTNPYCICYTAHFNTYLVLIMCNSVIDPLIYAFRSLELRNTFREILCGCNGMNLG
Experiment [3] addresses T3, Amine oxidase [flavin-containing] A (Homo sapiens, UniProt P21397).
T3 sequence (P21397 whole entry): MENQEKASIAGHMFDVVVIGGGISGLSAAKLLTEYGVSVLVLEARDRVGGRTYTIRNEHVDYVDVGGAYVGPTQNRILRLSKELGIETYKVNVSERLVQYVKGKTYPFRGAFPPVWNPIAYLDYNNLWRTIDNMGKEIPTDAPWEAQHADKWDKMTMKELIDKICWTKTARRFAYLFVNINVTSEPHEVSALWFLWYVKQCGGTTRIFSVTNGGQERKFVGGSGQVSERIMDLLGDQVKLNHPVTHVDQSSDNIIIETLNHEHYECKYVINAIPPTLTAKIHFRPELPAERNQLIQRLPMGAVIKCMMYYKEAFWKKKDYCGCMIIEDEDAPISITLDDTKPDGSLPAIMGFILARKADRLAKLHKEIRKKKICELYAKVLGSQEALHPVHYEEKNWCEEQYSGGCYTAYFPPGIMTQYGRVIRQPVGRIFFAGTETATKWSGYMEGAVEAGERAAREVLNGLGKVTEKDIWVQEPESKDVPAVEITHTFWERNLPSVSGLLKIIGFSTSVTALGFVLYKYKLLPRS
The experiment is classed as functional.

The target of experiment [4] is T4, Alpha-2C adrenergic receptor (Homo sapiens, UniProt P18825).
T4 sequence (P18825 whole entry): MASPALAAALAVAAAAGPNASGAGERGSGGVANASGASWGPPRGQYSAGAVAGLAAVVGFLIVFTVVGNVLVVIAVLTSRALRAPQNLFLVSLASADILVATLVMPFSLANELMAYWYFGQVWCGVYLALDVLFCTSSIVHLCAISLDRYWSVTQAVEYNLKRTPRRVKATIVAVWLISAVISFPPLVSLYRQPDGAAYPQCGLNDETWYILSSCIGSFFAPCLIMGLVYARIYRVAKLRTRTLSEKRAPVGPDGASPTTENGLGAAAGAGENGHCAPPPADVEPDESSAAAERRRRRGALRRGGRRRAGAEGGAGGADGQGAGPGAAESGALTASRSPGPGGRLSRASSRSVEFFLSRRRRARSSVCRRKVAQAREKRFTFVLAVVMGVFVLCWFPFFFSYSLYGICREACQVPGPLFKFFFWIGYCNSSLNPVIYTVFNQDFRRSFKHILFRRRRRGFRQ
The experiment is classed as functional.

In experiment [5] the target is Gamma-aminobutyric acid receptor subunit alpha-1 (Rattus norvegicus, UniProt P62813). It counts as functional.
Gamma-aminobutyric acid receptor subunit alpha-1, sequence (P62813 whole entry): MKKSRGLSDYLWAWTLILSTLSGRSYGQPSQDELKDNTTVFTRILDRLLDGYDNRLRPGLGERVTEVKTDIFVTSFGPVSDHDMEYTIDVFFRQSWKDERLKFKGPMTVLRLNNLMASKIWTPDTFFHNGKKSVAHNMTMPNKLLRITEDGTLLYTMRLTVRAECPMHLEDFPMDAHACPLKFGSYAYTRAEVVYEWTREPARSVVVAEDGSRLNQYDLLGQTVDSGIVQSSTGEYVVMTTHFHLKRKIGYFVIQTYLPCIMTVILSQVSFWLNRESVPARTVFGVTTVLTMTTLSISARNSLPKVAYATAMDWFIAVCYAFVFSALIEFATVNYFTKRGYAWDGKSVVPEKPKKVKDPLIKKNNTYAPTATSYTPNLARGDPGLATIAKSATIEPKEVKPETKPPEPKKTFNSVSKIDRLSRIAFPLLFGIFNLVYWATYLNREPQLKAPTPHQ
The next experiment addresses Adenosine receptor A2a (Homo sapiens, UniProt P29274).
The target of experiment [6] is Neuronal acetylcholine receptor subunit alpha-4 (Homo sapiens, UniProt P43681).
Neuronal acetylcholine receptor subunit alpha-4, sequence (P43681 whole entry): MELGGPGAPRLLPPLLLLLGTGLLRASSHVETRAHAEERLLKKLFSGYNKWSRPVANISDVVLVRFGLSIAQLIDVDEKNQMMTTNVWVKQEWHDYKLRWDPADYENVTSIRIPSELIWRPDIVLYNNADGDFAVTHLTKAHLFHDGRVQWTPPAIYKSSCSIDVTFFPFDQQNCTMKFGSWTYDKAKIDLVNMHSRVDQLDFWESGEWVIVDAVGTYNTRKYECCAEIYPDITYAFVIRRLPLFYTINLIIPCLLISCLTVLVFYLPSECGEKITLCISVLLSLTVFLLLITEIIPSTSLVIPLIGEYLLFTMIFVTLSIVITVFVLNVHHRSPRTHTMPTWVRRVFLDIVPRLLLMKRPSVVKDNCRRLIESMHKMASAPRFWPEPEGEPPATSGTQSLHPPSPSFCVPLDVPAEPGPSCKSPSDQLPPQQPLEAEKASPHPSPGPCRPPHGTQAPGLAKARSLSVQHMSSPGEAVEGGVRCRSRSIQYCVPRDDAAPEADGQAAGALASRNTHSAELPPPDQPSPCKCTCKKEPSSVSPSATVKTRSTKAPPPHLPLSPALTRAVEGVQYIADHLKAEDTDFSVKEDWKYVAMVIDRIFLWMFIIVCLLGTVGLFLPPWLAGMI
The target of experiment [7] is T5, 5-hydroxytryptamine receptor 2C (Homo sapiens, UniProt P28335).
T5 sequence (P28335 whole entry): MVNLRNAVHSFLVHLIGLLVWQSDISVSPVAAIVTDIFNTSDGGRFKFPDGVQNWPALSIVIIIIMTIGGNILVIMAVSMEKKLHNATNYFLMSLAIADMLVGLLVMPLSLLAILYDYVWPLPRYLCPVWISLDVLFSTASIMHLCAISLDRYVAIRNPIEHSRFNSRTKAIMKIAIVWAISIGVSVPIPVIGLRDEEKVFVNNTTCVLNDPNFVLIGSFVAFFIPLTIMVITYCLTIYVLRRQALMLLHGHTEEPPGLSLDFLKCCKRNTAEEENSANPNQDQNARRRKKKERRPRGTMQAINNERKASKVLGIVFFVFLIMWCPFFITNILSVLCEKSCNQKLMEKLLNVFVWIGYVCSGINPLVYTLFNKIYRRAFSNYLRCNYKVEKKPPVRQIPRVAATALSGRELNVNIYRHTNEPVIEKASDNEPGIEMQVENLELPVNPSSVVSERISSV

Experiment [8] concerns the target Sodium-dependent noradrenaline transporter (Homo sapiens, UniProt P23975).
In experiment [9] the target is Voltage-gated inwardly rectifying potassium channel KCNH2 (Homo sapiens, UniProt Q12809). It counts as functional. The conditions noted are these: read-out: AC50.
Voltage-gated inwardly rectifying potassium channel KCNH2, sequence (Q12809 whole entry): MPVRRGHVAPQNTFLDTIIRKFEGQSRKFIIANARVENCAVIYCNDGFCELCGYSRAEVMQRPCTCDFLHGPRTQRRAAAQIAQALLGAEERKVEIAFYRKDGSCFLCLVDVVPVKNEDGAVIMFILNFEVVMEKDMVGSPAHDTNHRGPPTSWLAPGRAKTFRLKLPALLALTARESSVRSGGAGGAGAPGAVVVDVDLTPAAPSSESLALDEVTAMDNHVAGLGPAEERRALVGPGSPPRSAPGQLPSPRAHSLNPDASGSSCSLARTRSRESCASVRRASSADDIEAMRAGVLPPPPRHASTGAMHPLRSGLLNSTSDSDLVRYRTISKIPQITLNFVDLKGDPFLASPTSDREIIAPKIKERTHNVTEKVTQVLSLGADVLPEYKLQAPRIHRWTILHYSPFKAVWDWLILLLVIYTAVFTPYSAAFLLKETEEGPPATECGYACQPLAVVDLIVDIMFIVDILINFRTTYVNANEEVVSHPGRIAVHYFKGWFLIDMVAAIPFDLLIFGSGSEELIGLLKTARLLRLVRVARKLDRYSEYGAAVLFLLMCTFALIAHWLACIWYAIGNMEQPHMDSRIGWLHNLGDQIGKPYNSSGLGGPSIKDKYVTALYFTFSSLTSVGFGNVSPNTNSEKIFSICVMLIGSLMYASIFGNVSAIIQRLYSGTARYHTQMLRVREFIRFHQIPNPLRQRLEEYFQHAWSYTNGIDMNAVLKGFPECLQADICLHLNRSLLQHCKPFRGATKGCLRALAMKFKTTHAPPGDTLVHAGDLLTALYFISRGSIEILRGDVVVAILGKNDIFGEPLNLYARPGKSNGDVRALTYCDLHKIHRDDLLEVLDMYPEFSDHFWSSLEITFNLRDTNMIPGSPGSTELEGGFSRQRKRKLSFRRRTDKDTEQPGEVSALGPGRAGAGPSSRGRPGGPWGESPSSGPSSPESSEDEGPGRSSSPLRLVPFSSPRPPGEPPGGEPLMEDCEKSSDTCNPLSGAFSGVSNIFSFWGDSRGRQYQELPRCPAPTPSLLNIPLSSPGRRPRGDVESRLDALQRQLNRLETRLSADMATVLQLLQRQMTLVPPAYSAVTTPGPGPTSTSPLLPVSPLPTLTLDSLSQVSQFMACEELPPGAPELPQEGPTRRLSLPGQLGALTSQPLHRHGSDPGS
Note: assay procedure not described here.

Sodium-dependent noradrenaline transporter, sequence (P23975 whole entry): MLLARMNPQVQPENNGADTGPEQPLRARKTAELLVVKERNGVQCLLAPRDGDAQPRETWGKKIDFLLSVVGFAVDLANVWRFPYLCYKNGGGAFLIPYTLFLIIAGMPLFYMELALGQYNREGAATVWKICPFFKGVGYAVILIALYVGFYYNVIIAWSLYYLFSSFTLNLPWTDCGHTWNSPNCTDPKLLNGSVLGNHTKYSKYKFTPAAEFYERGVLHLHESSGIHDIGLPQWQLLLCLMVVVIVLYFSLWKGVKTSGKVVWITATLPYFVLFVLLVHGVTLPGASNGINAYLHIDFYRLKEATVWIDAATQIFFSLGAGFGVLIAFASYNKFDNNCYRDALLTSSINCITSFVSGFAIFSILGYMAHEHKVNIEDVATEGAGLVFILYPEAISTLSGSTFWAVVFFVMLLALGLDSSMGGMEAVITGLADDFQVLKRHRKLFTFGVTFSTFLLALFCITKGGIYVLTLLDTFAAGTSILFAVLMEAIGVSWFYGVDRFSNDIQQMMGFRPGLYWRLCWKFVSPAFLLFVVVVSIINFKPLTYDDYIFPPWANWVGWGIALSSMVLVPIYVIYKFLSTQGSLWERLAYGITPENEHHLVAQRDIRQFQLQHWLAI
Adenosine receptor A2a, sequence (P29274 whole entry): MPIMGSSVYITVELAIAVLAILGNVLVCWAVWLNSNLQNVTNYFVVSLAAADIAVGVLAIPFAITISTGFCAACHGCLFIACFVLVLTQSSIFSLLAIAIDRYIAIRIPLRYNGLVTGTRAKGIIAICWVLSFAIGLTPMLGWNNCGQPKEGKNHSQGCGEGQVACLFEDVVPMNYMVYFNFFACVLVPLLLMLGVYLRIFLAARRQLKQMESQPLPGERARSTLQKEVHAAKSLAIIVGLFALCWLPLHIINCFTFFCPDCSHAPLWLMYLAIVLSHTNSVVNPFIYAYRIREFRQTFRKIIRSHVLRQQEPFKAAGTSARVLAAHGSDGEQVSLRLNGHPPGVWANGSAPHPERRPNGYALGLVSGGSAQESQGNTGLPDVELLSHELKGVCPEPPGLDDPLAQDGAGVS

As to `CO/N=C(\C(=O)N[C@@H]1C(=O)N2C(C(=O)[O-])=C(C[N+]3(C)CCCC3)CS[C@H]12)c1csc(N)n1`, the half-maximal activity concentration (AC50) (in [1]; in experiment [2]; at Melanocortin receptor 3; in experiment [3]; in experiment [4]; in experiment [5]) was over 300 µM in each case. The AC50 (on Adenosine receptor A2a; in experiment [6]; in experiment [7]; in experiment [8]; in experiment [9]) was over 300 µM throughout.
Regarding `CCOC(=O)[C@H](CCc1ccccc1)N[C@@H](C)C(=O)N1CCC[C@H]1C(=O)O`, the AC50 in experiment [1] is over 10 µM; in experiment [2] it was over 30 µM; at Melanocortin receptor 3, over 30 µM; in [3] it was over 10 µM; in experiment [4], over 10 µM; in experiment [5], over 10 µM. In addition, the AC50 on Adenosine receptor A2a was over 30 µM; in [6], over 10 µM; in experiment [7] it was over 10 µM; in experiment [8], over 10 µM; in experiment [9], over 30 µM.
Turning to `C[C@H]1O[C@H](O[C@H]2[C@H](O)[C@@H](O)[C@@H](O[C@H]3[C@H](O)[C@@H](O)C(O)O[C@@H]3CO)O[C@@H]2CO)[C@H](O)[C@@H](O)[C@@H]1N[C@H]1C=C(CO)[C@@H](O)[C@H](O)[C@H]1O` (stereo partly specified) [ACARBOSE], the AC50 in experiment [1] is over 30 µM; in experiment [2] it was over 30 µM; on Melanocortin receptor 3, over 30 µM; in experiment [3], over 10 µM; in experiment [4], over 10 µM; in experiment [5] it was over 10 µM. Besides, the AC50 (at Adenosine receptor A2a; in experiment [6]; in experiment [7]; in experiment [8]; in experiment [9]) was over 30 µM in each case.
Turning to `CC(=O)c1ccc2c(c1)N(CCCN1CCN(CCO)CC1)c1ccccc1S2` [ACETOPHENAZINE], the AC50 is over 30 µM in experiment [1]; over 30 µM in experiment [2]; over 30 µM at Melanocortin receptor 3; over 30 µM in experiment [3]; 0.72 µM in experiment [4]; over 30 µM in experiment [5]. Moreover, the concentration at half-maximal activity (AC50) is over 30 µM at Adenosine receptor A2a; over 30 µM in experiment [6]; over 30 µM in experiment [7]; 17 µM in experiment [8]; 2.3 µM in [9].
As to `Oc1ncnc2[nH]ncc12` [ALLOPURINOL], the AC50 in experiment [1] is over 10 µM; in [2], over 30 µM; on Melanocortin receptor 3, over 30 µM; in experiment [3], over 30 µM; in experiment [4] it was over 10 µM; in experiment [5], over 10 µM. In addition, the AC50 was over 30 µM at Adenosine receptor A2a; over 10 µM in [6]; over 30 µM in experiment [7]; over 10 µM in [8]; over 30 µM in experiment [9].
Turning to `COC(=O)N[C@H](C(=O)N[C@@H](Cc1ccccc1)[C@@H](O)CN(Cc1ccc(-c2ccccn2)cc1)NC(=O)[C@@H](NC(=O)OC)C(C)(C)C)C(C)(C)C` [ATAZANAVIR], the AC50 was over 10 µM in experiment [1]; over 10 µM in [2]; over 30 µM at Melanocortin receptor 3; over 10 µM in experiment [3]; over 10 µM in [4]; over 10 µM in [5]. The AC50 (on Adenosine receptor A2a; in experiment [6]; in experiment [7]; in experiment [8]; in experiment [9]) was over 30 µM each time.
On to `CC(C)NCC(O)COc1ccc(COCCOC(C)C)cc1` (stereo unspecified) [BISOPROLOL], for which the AC50 in experiment [1] is over 10 µM; in [2], over 30 µM; on Melanocortin receptor 3, over 30 µM; in experiment [3] it was over 10 µM; in experiment [4], over 10 µM; in experiment [5], over 10 µM. Besides, the AC50 at Adenosine receptor A2a is over 30 µM; in experiment [6], over 10 µM; in experiment [7], over 30 µM; in experiment [8], over 10 µM; in experiment [9], over 30 µM.
Consider `N[C@@H](C(=O)N[C@@H]1C(=O)N2C(C(=O)O)=C(Cl)CS[C@H]12)c1ccccc1` [CEFACLOR ANHYDROUS], for which the AC50 (in experiment [1]; in experiment [2]; on Melanocortin receptor 3; in experiment [3]; in experiment [4]; in [5]) was over 30 µM in each case. For the same molecule, the AC50 was over 30 µM on Adenosine receptor A2a; over 30 µM in experiment [6]; over 10 µM in experiment [7]; over 30 µM in experiment [8]; over 30 µM in [9].
As to `O=C(O)c1cc(-c2ccc(F)cc2F)ccc1O` [DIFLUNISAL], the AC50 (in [1]; in [2]; at Melanocortin receptor 3; in experiment [3]; in experiment [4]; in experiment [5]) was over 10 µM throughout. The half-maximal activity concentration (AC50) at Adenosine receptor A2a is over 10 µM; in experiment [6] it was over 10 µM; in [7] it was over 30 µM; in experiment [8], over 10 µM; in [9], over 30 µM.
In the case of `COC(=O)[C@@H]1CC2=CC(=O)CC[C@]2(C)[C@@]23O[C@@H]2C[C@@]2(C)[C@@H](CC[C@@]24CCC(=O)O4)[C@H]13` [EPLERENONE], the AC50 in experiment [1] is over 30 µM; in experiment [2] it was over 30 µM; on Melanocortin receptor 3, over 30 µM; in experiment [3] it was over 30 µM; in experiment [4], over 30 µM; in experiment [5], over 10 µM. Moreover, the AC50 (on Adenosine receptor A2a; in [6]; in experiment [7]; in [8]; in experiment [9]) was over 30 µM in each case.
For the molecule `CC(C)C(=O)Nc1ccc([N+](=O)[O-])c(C(F)(F)F)c1` [FLUTAMIDE], the AC50 in [1] was over 10 µM; in [2] it was over 10 µM; on Melanocortin receptor 3, over 30 µM; in experiment [3] it was over 30 µM; in experiment [4] it was over 10 µM; in experiment [5], over 10 µM. Moreover, the AC50 on Adenosine receptor A2a is over 30 µM; in [6] it was over 30 µM; in experiment [7], over 30 µM; in [8] it was over 10 µM; in experiment [9] it was 2.53 µM.
